Source: patent US20080063628A1, “METHODS TO PROMOTE CELL DIFFERENTIATION” (priority 2006, published 2008)

Tests used:
Type in all cases: cell-based, human
[1] = tested on: resting peripheral blood mononuclear cells (PBMCs); assay: Trichostatin A treatment of PBMCs, gene expression by RT-PCR (Example 20); conditions: 5 μM
Excerpt: Human peripheral blood mononuclear cells (PBMCs) were isolated from whole blood using Histopaque (Sigma) gradients and standard density centrifugation. PBMCs are a heterogeneous mixture of lymphoid cells including quiescent T-lymphocytes. Cells were washed thoroughly, counted, and resuspended at 1-2×10^6 cells per ml in culture medium containing RPMI-1640 and 10% FCS. Phytohemagglutinin (PHA; Sigma) is a mitogenic lectin that specifically induces T-lymphocyte activation and proliferation. PHA was added to the cell suspension at a final concentration of 10 μg/ml, and PBMCs were cultured for 3 days at 37° C. with 5% CO2. […] At the end of culture, PBMCs were pooled to harvest, washed thoroughly, and resuspended in fresh culture medium with 5 μM trichostatin A diluted in DMSO. A control culture of PHA-treated PBMCs received an equivalent dilution of DMSO alone. Cells were returned to culture for an additional 24 or 48 hours. Alternatively, resting PBMCs were isolated in a similar manner and cultured for 24 or 48 hours total incubation time with either 5 μM trichostatin A or DMSO alone. At the conclusion of culture, cells were harvested and washed with PBS prior to preparation of RNA in RLT lysis buffer with β-mercaptoethanol (Qiagen). RNA was purified using the RNeasy Mini Kit (Qiagen); RNA quantity and quality were determined using a spectrophotometer. CDNA was made using the iScript CDNA synthesis kit (BioRad). Samples of 20 ng CDNA were used in each RT-PCR reaction, performed on the Applied Biosystems 7500. Results were normalized against GAPDH expression levels with data analysis performed using the accompanying software.

[2] = tested on: second amniotic fluid-derived cell line; assay: Two high dose trichostatin A treatments (first 48 h), gene expression by RT-PCR (Example 9); conditions: for Gata1 gene expression / HNF-3 beta gene expression / Insulin gene expression / Pdx-1 gene expression / sox17 gene expression: 1.25 μM 0-48 h + 96-120 h;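 on Gata-1 RT-PCR detection cycle: lower cycle number means higher gene expression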;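 on HNF-3 beta RT-PCR detection cycle: lower cycle number means higher gene expression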
Description: Several cell lines obtained from different amniotic fluid specimens (see Example 14) and pancreas donors (see Example 13) were tested with similar results. Two lines at similar passage number but derived from different amniotic fluid specimens are shown in Table VIII-A and Table VIII-B for this example. One of these cell lines was also used in examples 2 and 4 above. In addition, this example also contains comparison data in Table VIII-C and Table VIII-D for a single pancreatic-derived stromal line grown to early and late passage number.
Amniotic fluid derived cells or pancreatic-derived stromal cells were seeded into 24-well tissue culture plates at a density of 5000/cm^2 and cultured in AMNIOMAX (Invitrogen) or DMEM with 10% FBS respectively under standard cell culture conditions until confluent. After reaching confluence, amniotic fluid derived cells were treated at time 0 hours with a dose of 1.25 μM trichostatin A, and pancreatic-derived stromal cells were treated with a dose of 5.0 μM trichostatin A solubilized in DMSO and medium. At time 48 hours, cell cultures underwent a complete medium change to remove all traces of trichostatin A. At time 96 hours, cell cultures were re-fed with fresh medium and received a second dose of trichostatin A at the same concentration as used previously. At time 120 hours, cell cultures again underwent a complete medium change and were cultured for an additional 24 hours or […] total incubation time. Samples were taken for RT-PCR at the times indicated in Table IX-A to D. RNA samples were obtained daily from the start of the experiment. Culture medium was removed, and cells were washed with PBS then collected in RLT with β-mercaptoethanol (Qiagen). RNA was purified using the RNeasy Mini Kit (Qiagen) and RNA quantity and quality was determined using a spectrophotometer. cDNA was made using the iScript cDNA synthesis kit (BioRad). Human pancreas cDNA was included as a control. Results were normalized against GAPDH expression levels.
Gene expression levels of Sox17, HNF-3 beta, Pdx-1, insulin, and glucagon were analyzed in amniotic-derived cells, while expression levels of glucagon, insulin, HNF-3 beta, and Pdx-1 were analyzed in pancreas-derived cells. Samples of 20 ng cDNA was used in each Real-Time PCR reaction. RT-PCR was performed on the Applied Biosystems 7500, according to the methods described in Example 15. The data were analyzed using the accompanying software.
Real-time PCR amplifcation and quantitative analysis. Unless otherwise stated, all reagents were purchased from Applied Biosystems. Real-time PCR reactions were performed using the ABI PRISM™ 7500 Sequence Detection System. TAQMAN™ FAST UNIVERSAL PCR MASTER MIX™ (ABI, CA) was used with 20 ng of reverse transcribed RNA in a total reaction volume of 20 μl. Each cDNA sample was run in duplicate to allow correction of pipetting errors. Primers and FAM-labeled TAQMAN™ probes were used at concentrations of 200 nM. The level of expression for each target gene was normalized using the pre-developed Applied Biosystem's human glyceraldehyde-3-phosphate dehydrogenase (GAPDH) endogenous control kit. Primers and probes were designed using either ABI PRISM PRIMER EXPRESS™ software or a pre-developed ABI gene analysis kit. For each gene, either one of the primers or the probe were designed to be exon-boundary spanning. This eliminated the possibility of the primers/probe binding to any genomic DNA present. The primer and probe sets are listed as follows: Pdx-1 (Hs00426216), Insulin (Hs00355773), glucagon (Hs00174967), and FoxA2 (HNF 3-beta) (Hs00232764). The remaining primers were designed using the PRIMERS program (ABI, CA). After an initial 95° C. incubation for 20 sec, samples were cycled 40 times in two stages: a denaturation step at 95° C. for 3 sec, followed by an annealing/extension step at 60° C. for 30 sec. […]

[3] = tested on: second amniotic fluid-derived cell line; assay: as above; conditions: 1.25 μM, following first treatment;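 on Gata-1 RT-PCR detection cycle: lower cycle number means higher gene expression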;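 on HNF-3 beta RT-PCR detection cycle: lower cycle number means higher gene expression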
[4] = 1.25 μM, following the second treatment

Question: For `CC(/C=C/C(=O)NO)=C\[C@@H](C)C(=O)c1ccc(N(C)C)cc1` [trichostatin A], which HNF-3 beta expression ([1]; 24 or 48 hours) is on record?
Answer: negative

Question: And the Sox17 expression ([1]; 24 or 48 hours)?
Answer: negative

Question: And the glucagon expression ([1]; 24 or 48 hours)?
Answer: negative

Question: What about the insulin expression ([1]; 24 or 48 hours) of the same molecule?
Answer: negative

Question: And the somatostatin expression ([1]; 24 or 48 hours)?
Answer: negative

Question: And the GAPDH gene expression ([1]; 24 hrs)?
Answer: +++ (detectable at less than 35 cycles by RT-PCR with SE less than 0.9)

Question: And the GATA4 gene expression ([1]; 24 hrs)?
Answer: + (detectable at greater than 35–40 cycles by RT-PCR)

Question: What about the Gata1 gene expression ([1]; 24 hrs) of the same molecule?
Answer: nd (not detectable at >40 cycles by RT-PCR)

Question: And the Pdx-1 gene expression ([1]; 24 hrs)?
Answer: nd (not detectable at >40 cycles by RT-PCR)

Question: And the GAPDH gene expression ([1]; 48 hours)?
Answer: +++ (detectable at less than 35 cycles by RT-PCR with SE less than 0.9)

Question: And the GATA4 gene expression ([1]; 48 hours)?
Answer: + (detectable at greater than 35–40 cycles by RT-PCR)

Question: And the Gata1 gene expression ([1]; 48 hours)?
Answer: nd (not detectable at >40 cycles by RT-PCR)

Question: What about the Pdx-1 gene expression ([1]; 48 hours) of the same molecule?
Answer: nd (not detectable at >40 cycles by RT-PCR)

Question: What about the Gata1 gene expression ([2]; 24 hrs) of the same molecule?
Answer: + (detectable between 35 and 40 cycles by RT-PCR)

Question: What about the “HNF-3 beta gene expression” value ([2]; 24 hrs) of the same molecule?
Answer: +++ (detectable at less than 35 cycles by RT-PCR with SE less than 0.9)

Question: What about the Insulin gene expression ([2]; 24 hrs) of the same molecule?
Answer: nd (not detectable at >40 cycles by RT-PCR)

Question: What about the Pdx-1 gene expression ([2]; 24 hrs) of the same molecule?
Answer: ++ (detectable at less than 35 cycles by RT-PCR with SE greater than 0.9)

Question: What about the sox17 gene expression ([2]; 24 hrs) of the same molecule?
Answer: +++ (detectable at less than 35 cycles by RT-PCR with SE less than 0.9)

Question: What about the Gata1 gene expression ([2]; 48 hrs) of the same molecule?
Answer: nd (not detectable at >40 cycles by RT-PCR)

Question: What about the “HNF-3 beta gene expression” value ([2]; 48 hrs) of the same molecule?
Answer: +++ (detectable at less than 35 cycles by RT-PCR with SE less than 0.9)

Question: And the Insulin gene expression ([2]; 48 hrs)?
Answer: nd (not detectable at >40 cycles by RT-PCR)

Question: What about the Pdx-1 gene expression ([2]; 48 hrs) of the same molecule?
Answer: + (detectable between 35 and 40 cycles by RT-PCR)

Question: What about the sox17 gene expression ([2]; 48 hrs) of the same molecule?
Answer: +++ (detectable at less than 35 cycles by RT-PCR with SE less than 0.9)

Question: What about the Gata1 gene expression ([2]; 72 hrs) of the same molecule?
Answer: nd (not detectable at >40 cycles by RT-PCR)

Question: What about the “HNF-3 beta gene expression” value ([2]; 72 hrs) of the same molecule?
Answer: +++ (detectable at less than 35 cycles by RT-PCR with SE less than 0.9)

Question: What about the Insulin gene expression ([2]; 72 hrs) of the same molecule?
Answer: nd (not detectable at >40 cycles by RT-PCR)

Question: And the Pdx-1 gene expression ([2]; 72 hrs)?
Answer: nd (not detectable at >40 cycles by RT-PCR)

Question: What about the sox17 gene expression ([2]; 72 hrs) of the same molecule?
Answer: +++ (detectable at less than 35 cycles by RT-PCR with SE less than 0.9)

Question: And the Gata1 gene expression ([2]; 96 hrs)?
Answer: nd (not detectable at >40 cycles by RT-PCR)

Question: And the “HNF-3 beta gene expression” value ([2]; 96 hrs)?
Answer: + (detectable between 35 and 40 cycles by RT-PCR)

Question: What about the Insulin gene expression ([2]; 96 hrs) of the same molecule?
Answer: nd (not detectable at >40 cycles by RT-PCR)

Question: What about the Pdx-1 gene expression ([2]; 96 hrs) of the same molecule?
Answer: nd (not detectable at >40 cycles by RT-PCR)

Question: And the sox17 gene expression ([2]; 96 hrs)?
Answer: +++ (detectable at less than 35 cycles by RT-PCR with SE less than 0.9)

Question: And the Gata1 gene expression ([2]; 120 hrs)?
Answer: + (detectable between 35 and 40 cycles by RT-PCR)

Question: What about the “HNF-3 beta gene expression” value ([2]; 120 hrs) of the same molecule?
Answer: +++ (detectable at less than 35 cycles by RT-PCR with SE less than 0.9)

Question: And the Insulin gene expression ([2]; 120 hrs)?
Answer: nd (not detectable at >40 cycles by RT-PCR)

Question: And the Pdx-1 gene expression ([2]; 120 hrs)?
Answer: +++ (detectable at less than 35 cycles by RT-PCR with SE less than 0.9)

Question: And the sox17 gene expression ([2]; 120 hrs)?
Answer: +++ (detectable at less than 35 cycles by RT-PCR with SE less than 0.9)

Question: And the “HNF-3 beta RT-PCR detection cycle” value ([2]; 1.25 μM, by 96 hours)?
Answer: 37 cycles

Question: And the “HNF-3 beta RT-PCR detection cycle” value ([2]; 1.25 μM, first 72 hours)?
Answer: 34 cycles

Question: What about the “Pdx-1 RT-PCR detection cycle” value ([2]; 1.25 μM, following the initial 48-hour treatment) of the same molecule?
Answer: 35 cycles

Question: And the “Gata-1 RT-PCR detection cycle” value [2, 4]?
Answer: 38 cycles

Question: And the “HNF-3 beta RT-PCR detection cycle” value [2, 4]?
Answer: 33 cycles

Question: What about the “Pdx-1 RT-PCR detection cycle” value [2, 4] of the same molecule?
Answer: 34 cycles

Question: And the “Gata-1 RT-PCR detection cycle” value [3]?
Answer: 38 cycles
